Experimental findings from patent publication US20120076762A1, “INDUCED PLURIPOTENT STEM CELL GENERATION USING TWO FACTORS AND P53 INACTIVATION” (THE SALK INSTITUTE FOR BIOLOGICAL STUDIES, priority 2009, published 2012) are described below.

Marks after values point to notes of the source that are not given here.

Series [1] has as its system human primary keratinocytes. In words: Reprogramming of human primary keratinocytes (AP-positive hES-like colonies). The class given is cell-based. The text has this: FIG. 5: Downregulation of p53 activity increases reprogramming efficiency of human somatic cells. (FIG. 5a) Human embryonic fibroblasts were infected with retroviruses encoding Oct4/Sox2/Klf4 (3-F) or Oct4/Sox2/Klf4/c-Myc (4-F) factors in combination with lentiviruses expressing control- or p53-shRNA. Emerging colonies of iPS cells were visualized by immunostaining with anti-Nanog antibody using an ABC method. […] (FIG. 5b) Human primary keratinocytes were co-infected with 4-F and retroviruses expressing GFP or p53-DD. 5×10^4 infected cells were plated on 10-cm dishes and stained for AP activity after 2 weeks. […] Actin was used as a loading control. (FIG. 5c) The bars represent the average number of iPS-like colonies obtained from 10^4 keratinocytes reprogrammed with 3-F or 4-F and retroviruses encoding GFP or p53-DD, in the absence or presence of the p53 agonist Nutlin3a (n=3). iPS-like colonies were scored as having hES-like morphology and positive AP staining. Due to the numerous colonies generated in 4-F p53-DD keratinocytes, quantification was done using 10^4 cells. […]

For series [2], the system named is Mouse embryonic fibroblasts (MEFs). Briefly: Reprogramming of mouse embryonic fibroblasts to iPS cells (Nanog-positive colonies). The format is cell-based. Conditions: for Effect on reprogramming / Fold increase in reprogramming / Nanog-positive colony formation vs control: 3-F; for Direction and grade of change in reprogramming efficiency (arrows) / Reprogramming efficiency (Nanog-positive colonies / infected cells) / Fold increase in reprogramming / Nanog-positive colony formation vs control: MEFs. From the text: (§1) VSV-G viruses were produced in HEK293T cells. For pMX-based and pMSCV-based retroviruses, vectors were transfected using CaPO4 or lipofectamin, following the manufacturers' directions. One day after transfection, culture medium was changed to new medium. For lentivirus, pBOBI-based^34 or pLVTHM-based^37 vectors were transfected by Lipofectamine™ 2000 (Invitrogen) according to the manufacturer's protocol. Six hours after transfection, the DNA-lipofectamine-complex was removed and the medium was replaced the next day. Two days after transfection, the supernatant containing viruses was collected and filtered through a 0.45 μm filter. Mouse iPS cells were induced as previously described^38,39. Briefly, mouse embryonic fibroblasts (passage 3 to 5) were infected (day 0) with pMX-based retroviruses together with pLVTHM-based lentivirus for shRNAs or pBOBI-based lentivirus for Bcl-2. On day 2, cells were passed onto new gelatin-coated plates. Medium was changed every 2 days. On day 12 to 14, cells were fixed for immunofluorescence study. For the Nutlin3a experiments, cells were treated starting from day 4. Reprogramming of human embryonic fibroblasts (IMR90) was done as previously described^2′^3. Briefly, IMR90 fibroblasts (passage 7 to 9) were infected (day 0) with pMSCV-based retroviruses+pLVTHM-based lentiviruses for p53 shRNA. On day 4 or 5, cells were passed onto feeder MEFs. Medium was changed every day. Around 3 weeks after infection, cells were fixed for immunofluorescence studies. Reprogramming of human primary keratinocytes was carried out essentially as described^6. Cells were co-infected with retroviral supernatants containing 3 or 4 reprogramming factors and p53-DD or GFP at a 1:2 ratio. To assess the reprogramming efficiency, cells were trypsinized 3 days after retroviral infection and 10^4 cells were plated onto 6-cm tissue culture dishes on top of irradiated human foreskin fibroblasts with hES cell medium.
The number of Nanog-positive colonies was calculated after immunostaining at d12-14. The total number of Nanog-positive colonies was divided by the number of infected cells. Error numbers indicate s.d. The term “s.d.” refers in the customary sense to standard deviation. The term “s.e.” refers in the customary sense to standard error. Student's t-tests were performed for statistical analysis. p=0.007 (p53-shRNA vs mock, n=4 in each), p=0.0006 (p53−/− vs WT, n=3 in each), p=0.009 (p21-shRNA vs mock, n=4 in each), p=0.0005 (Arf-shRNA vs mock, n=3 in each), p=0.028 (Arf/Ink4a-shRNA vs mock, n=3 in each), p=0.010 (Ctl(solvent) vs Nutlin-3(10 μM), n=3 in each), p=0.045 (3SA/3SA vs WT, n=3 in each), p=0.022 (Bcl-2 vs mock, n=4 in each), and p=0.012 (c-Myc versus mock, n=4 in each).

The subject of a further series is Arf. Briefly: Arf level after shRNA in MEFs (Western blot). The format is cell-based, mouse. As to conditions: lentiviral shRNA, day 4. From the text:
FIG. 2: Modulation of p53 activity alters reprogramming efficiency. (FIG. 2a) Fold change in the number of 3-F induced Nanog-positive colonies by Arf shRNA compared to control shRNA (n=3). Protein levels of Arf, Ink4a and α-Tubulin (loading control) on day 4 after infection are shown. (FIG. 2b) Fold change in the number of 3-F induced Nanog-positive colonies by Arf/Ink4a shRNA compared to control shRNA (n=3). Protein levels of Arf, Ink4a and α-Tubulin (loading control) on day 4 after infection are shown. (FIG. 2c) MEFs isolated from wild type (+/+), Mdmx-3SA heterozygous (3SA/+) and homozygous (3SA/3SA) mice were exposed to 5Gy of gamma-irradiation for 4 hours. p21 mRNA levels were analyzed by QPCR. Results were normalized to untreated WT samples for fold induction. (FIG. 2d) 3-F induced Nanog-positive colonies in wild type (+/+) and homozygous (3SA/3SA) mice (n=3).
Cells were washed once in PBS and lysed in 2×SDS-PAGE sample buffer without 2-mercaptoethanol and glycerol. Lysates were briefly sonicated and cleared by centrifugation. The protein concentration was determined by a BCA Protein Assay Kit (Thermo Scientific). Lysates were then mixed with 2-mercaptoethanol, BPB and glycerol, and boiled. Equal amounts of proteins were subjected to SDS-PAGE. […] Quantitative PCR was performed using SYBR® GREEN PCR Master Mix (Applied Biosystems).
(A western blot detects proteins with antibodies after separation by electrophoresis.)

Another series deals with p21. In words: p21 expression after shRNA in MEFs. The class given is cell-based, mouse. As to conditions: lentiviral shRNA. As for the experimental part: FIG. 1: Increased generation of iPS cells by blocking p53 and p21. (FIG. 1a) Mouse embryonic fibroblasts (MEFs) were infected by retroviruses encoding 3 transcription factors (Oct4/Sox2/Klf4), 2 factors (Oct4/Sox2), Klf4, c-Myc or GFP. Four days after infection, the protein levels of p53, Arf, and p21 were analyzed by Western Blotting. α-tubulin was used as a loading control. (FIG. 1b) Mouse embryonic fibroblasts (MEFs) were infected by retroviruses encoding three transcription factors (Oct4/Sox2/Klf4) in combination with mock, control shRNA (GFP) and p53 shRNA (#1 and #2). Emerging colonies of iPS cells were visualized by immunostaining with anti-Nanog antibody using an Avidin Biotin Complex (ABC) method. (FIG. 1c) The fold change in the number of Nanog-positive colonies compared to mock (n=4). For all figures in this study, error bars indicate s.d. (FIG. 1d) Effect of Nutlin 3a on the number of Nanog-positive colonies by 3 factors in combination with mock, p53, and p21 shRNA. Cells were treated by Nutlin 3a (0, 3, 10 μM) starting from day 4. […]
Cells were washed once in PBS and lysed in 2×SDS-PAGE sample buffer without 2-mercaptoethanol and glycerol. […] The protein concentration was determined by a BCA Protein Assay Kit (Thermo Scientific). […] Quantitative PCR was performed using SYBR® GREEN PCR Master Mix (Applied Biosystems).

The subject of series [3] is human embryonic fibroblasts (HEFs, IMR90). In words: Reprogramming of human embryonic fibroblasts (Nanog- or Tra1-81-positive colonies). The format is cell-based.
Excerpt: as §1, with “.” for “VSV-G viruses were produced in HEK293T cells.”
The number of Nanog- or Tral-81-positive colonies was calculated after immunostaining at dl 8-27. No colonies were observed from mock +4-F or 3-F cells in all trials. The total number of colonies was divided by the number of infected cells. Error numbers indicate s.d (n=4).

Where [4] appears, read: 3F (Oct4/Sox2/Klf4), d12-14, error = s.d.

`COc1ccc(C2=N[C@@H](c3ccc(Cl)cc3)[C@@H](c3ccc(Cl)cc3)N2C(=O)N2CCNC(=O)C2)c(OC(C)C)c1` [Nutlin3a]: the Effect on reprogramming entry in series [1] (3-F or 4-F p53-DD expressing keratinocytes) is given as “inability of Nutlin3a to reduce reprogramming”; in series [2] (p53(+/+) MEFs), “dramatically reduced reprogramming”; in series [2] (p53-null (−/−) MEFs) it was “did not have any effects”. Also, the “Effect on reprogramming efficiency” value in series [1] (human keratinocytes, 3-F or 4-F) is on record as “markedly reduced the reprogramming efficiency”. Besides, the “Effect on iPS cell formation” value in series [2] (3-F MEFs with p53 reduced by most effective shRNA, 0, 3, 10 μM from day 4) is “dose-dependent decrease”. Moreover, in series [2] (3F, Nutlin-3 10 μM vs solvent), the “Direction and grade of change in reprogramming efficiency (arrows)” value (shortened to “Direction and grade of change”) is “↓↓”. For the same molecule, the “Reprogramming efficiency (Nanog-positive colonies / infected cells)” value in series [2] (3F, Nutlin-3 10 μM vs solvent, treated from day 4, error = s.d.) was 0.007 + 0.008% vs 0.114 + 0.054%.

Turning to “Arf shRNA: shRNA sequence CACCGGAATCCTGGACCAG, SEQ ID NO: 5”, in series [2], the “Fold increase in reprogramming / Nanog-positive colony formation vs control” value is on record as “approximately 2 fold”. Moreover, the “Reprogramming efficiency (Nanog-positive colonies / infected cells)” value in series [2] (setting [4]) is 0.163 ± 0.013% vs 0.085 + 0.083%. Also, the “Direction and grade of change” value in series [2] (3F, vs control) was “↑”. Further, the “Reduction of Arf levels” value with Arf is listed as 2-4 fold.

Take “Arf/Ink4a shRNA: shRNA sequence AATGGCTGGATTGTTTAAA, SEQ ID NO: 6”: the “Reprogramming efficiency (Nanog-positive colonies / infected cells)” value in series [2] (setting [4]) stood at 0.366 ± 0.144% vs 0.114 + 0.054%. In addition, the “Direction and grade of change” value in series [2] (3F, vs control) is “↑↑”.

For the molecule “p21 shRNA: shRNA sequence TTAGGACTCAACCGTAATA, SEQ ID NO: 4”, the “Reduction of p21 expression” value in the series on p21 is 3-4 fold. For the same molecule, the “Fold increase in reprogramming / Nanog-positive colony formation vs control” value in series [2] is recorded as “approximately 3 fold”. Also, in series [2] (setting [4]), the “Reprogramming efficiency (Nanog-positive colonies / infected cells)” value is 0.359 ± 0.144% vs 0.114 + 0.054%. Moreover, the “Direction and grade of change” value in series [2] (3F, vs control) is given as “↑↑↑”.

With “p53shRNA: lentiviral shRNA against human p53, sequence GACTCCAGTGGTAATCTAC, SEQ ID NO: 7 (lentiviral vector)”, the “Actual number of Nanog-positive colonies” value in series [3] (3-F, Trial 1) was 10 colonies/3 × 10^4 cells (p53shRNA); in series [3] (3-F, Trial 2) it was 2 colonies/1 × 10^4 cells (p53shRNA); in series [3] (4-F, Trial 1), 86 colonies/2 × 10^4 cells (p53shRNA); in series [3] (4-F, Trial 2), 13 colonies/2 × 10^4 cells (p53shRNA); in series [3] (4-F, Trial 3), 19 colonies/2 × 10^4 cells (p53shRNA); in series [3] (4-F, Trial 4), 4 colonies/2 × 10^4 cells (p53shRNA). Also, the “Reprogramming efficiency of HEFs” value in series [3] (3-F, average of 2 independent experiments) is 0.027% *; in series [3] (4-F, ± s.d. (n=4)) it was 0.153 ± 0.188%.
